According to patent US8742082B2, “Compositions and methods for influencing satiety, lipid metabolism, and fat utilization” (Nestec S.A., priority 2008, dated 2014):

Experiments:
[1] = tested on: Fatty Acid Synthase (FAS 1); assay: Real-time PCR gene expression in peripheral tissues: FAS; format: in vivo; conditions: liver; C57bl6j mice, high fat diet, 100 mg/kg/body weight in diet, 5 weeks
Description: (§1) The expression of 45 genes was measured by real-time PCR in peripheral tissues to identify genes that were differentially expressed in response to oral administration of oleoylethanolamide (OEA) or a non-hydrolysable OEA analog (KDS 5104), which affect satiety, lipid metabolism, fat utilization, food intake, and body fat mass.
(§2) Animals, diet, and experimental design. Adult male C57bl6j mice purchased at 8 weeks of age were individually housed and maintained ad libitum on high fat diet and water for 2 weeks. Seven mice were randomly allocated in 3 groups and fed with a high fat diet (lipids represented 50% of daily energy) for 2 weeks. […]
(§3) RNA extraction and gene expression. […] The RNA concentration was determined on nanodrop from the absorbance at 260 nm. […] Real-time quantitative PCR (RT-qPCR) were performed on cDNA obtained as described above using a high through put system (Biomek 3000, Beckman & Coulter, Fullerton, USA) and a Lightcycler 480 (Roche/Hitachi, Basel, Switzerland) with SYBR Green Master mix+kit (Eurogentec, Philadelphia, USA). […] Values were expressed as ratio of RNA levels relative to control mice (diets with 0 mg of OEA/kg/body weight) using ΔΔ(Ct) (Livak K J & Schmittgen T D, 2001, Methods 25:402-8). Gene expression of the following genes was measured (abbreviation and GenBank Accession shown in parentheses). […]

[2] = tested on: Oleoylethanolamide synthase (OEA synthase); assay: Real-time PCR gene expression in peripheral tissues: OEA synthase; format: in vivo; conditions: proximal intestine; C57bl6j mice, high fat diet, 100 mg/kg/body weight in diet, 5 weeks
Description: as §1, §2, §3

[3] = tested on: Fatty acid amide hydrolase (FAAH); assay: Real-time PCR gene expression in peripheral tissues: FAAH; format: in vivo; conditions: C57bl6j mice, high fat diet, 100 mg/kg/body weight in diet, 5 weeks
Description: as §1
(§4) Animals, diet, and experimental design. Adult male C57bl6j mice purchased at 8 weeks of age were individually housed and maintained ad libitum on high fat diet and water for 2 weeks. Seven mice were randomly allocated in 3 groups and fed with a high fat diet (lipids represented 50% of daily energy) for 2 weeks. For one kilogram, the composition of the high fat diet was: 235 g casein, 201 g saccharose, 3.5 g L-cystine, 85 g starch, 116 g maltodextrin, 60 g cellulose, 12 g vitamins mix (AIN-93M, UPAE, Jouy-en-Josas, France), 51.5 g mineral mix (AIN-93Vx, UPAE, Jouy-en-Josas, France), and 236 g lard. Then, either OEA or KDS 5104 was added to the diet at a concentration of 100 mg/kg/body weight. The mice were kept under treatment for 5 weeks.
(§5) Sampling. At the end of the experimental period, mice were sacrificed by blood drawing (cardiac puncture) after anesthesia with isoflurane. Plasma was obtained by centrifugation (1,000 g for 10 min at 4° C.). Mesenteric, epididymal, inguinal and peritoneal adipose depots, as well as liver, stomach, small intestine mucosa, pancreas, and gastrocnemian muscle were removed and frozen into liquid nitrogen. Plasma, urine, feces, and organ samples were kept at −80° C. until analysis.
(§6) RNA extraction and gene expression. Total RNA from liver, intestine mucous membrane, adipose tissues, gastrocnemian muscle, pancreas and stomach were extracted with TRIzol reagent (Invitrogen, Carlsbad, USA) according to the manufacturer's instruction. The RNA concentration was determined on nanodrop from the absorbance at 260 nm. Retro-transcription PCRs to synthesize cDNA were performed using an Applied Biosystem Thermal Cycler 2720 and Superscript II (Invitrogen, Carlsbad, USA) according to manufacturer's protocol. Real-time quantitative PCR (RT-qPCR) were performed on cDNA obtained as described above using a high through put system (Biomek 3000, Beckman & Coulter, Fullerton, USA) and a Lightcycler 480 (Roche/Hitachi, Basel, Switzerland) with SYBR Green Master mix+kit (Eurogentec, Philadelphia, USA). Primers for the selected genes were generated using online informatics assistance from the Lightcycler manufacturer (Roche). Databases used to identify the genes were (1) the NCBI database (GenBank) and (2) the IHOP (Information Hyperlinked over Protein) database (www.ihop-net.org/UniPub/iHOP/bng/). Values were expressed as ratio of RNA levels relative to control mice (diets with 0 mg of OEA/kg/body weight) using ΔΔ(Ct) (Livak K J & Schmittgen T D, 2001, Methods 25:402-8). Gene expression of the following genes was measured (abbreviation and GenBank Accession shown in parentheses).
(§7) Statistical analysis. […] Statistical analysis of physiological parameters and gene expression data was performed by one-way ANOVA on Statview software (SAS Institute, Cary, USA). Daily food intake was analyzed using two-way ANOVA on Statview software. Statistical significance was set up at the P<0.05 level, the P<0.01 level and the P<0.001 level. For statistical analysis of the gene expression data, values were calculated relative to 18S expression for each mouse and gene.

[4] = tested on: Sterol regulatory element binding protein-c 1 (SREBP 1c); assay: Real-time PCR gene expression in peripheral tissues: SREBP1c; format: in vivo; conditions: C57bl6j mice, high fat diet, 100 mg/kg/body weight in diet, 5 weeks
Description: as §1, §4, §5, §6, §7

[5] = oral, over the 12 first hours; cited from earlier work
[6] = tested on: Fasting induced adipocyte factor (Fiaf); assay: Real-time PCR gene expression in peripheral tissues: Fiaf; format: in vivo; conditions: C57bl6j mice, high fat diet, 100 mg/kg/body weight in diet, 5 weeks
Description: as §1, §4, §5, §6, §7

[7] = tested on: Phosphoenolpyruvate carboxykinase (PEP CK); assay: Real-time PCR gene expression in peripheral tissues: PepCK; format: in vivo; conditions: liver; C57bl6j mice, high fat diet, 100 mg/kg/body weight in diet, 5 weeks
Description: as §1, §2, §3

[8] = tested on: Uncoupling protein 2 (UCP2); assay: Real-time PCR gene expression in peripheral tissues: UCP2; format: in vivo; conditions: muscle; C57bl6j mice, high fat diet, 100 mg/kg/body weight in diet, 5 weeks
Description: as §1, §2, §3

[9] = tested on: Cannabinoid receptor 1 (CB 1); assay: Real-time PCR gene expression in peripheral tissues: CB1; format: in vivo; conditions: C57bl6j mice, high fat diet, 100 mg/kg/body weight in diet, 5 weeks
Description: as §1, §4, §5, §6, §7

[10] = tested on: N-acylsphingosine amidohydrolase-like (NAAA); assay: Real-time PCR gene expression in peripheral tissues: NAAA; format: in vivo; conditions: C57bl6j mice, high fat diet, 100 mg/kg/body weight in diet, 5 weeks
Description: as §1, §4, §5, §6, §7

[11] = molecular target: G-protein coupled cannabinoid receptor GPR119 (Homo sapiens, UniProt Q8TDV5); conditions: cited from earlier work
[12] = tested on: overall gene expression pattern; assay: Multivariate statistical analysis of overall gene expression pattern; format: in vivo; conditions: C57bl6j mice, high fat diet, 100 mg/kg/body weight in diet, 5 weeks
Description: as §1, §2, §3

AcylCoA oxidase (ACO) = assay: Real-time PCR gene expression in peripheral tissues: ACO; format: in vivo; conditions: liver; C57bl6j mice, high fat diet, 100 mg/kg/body weight in diet, 5 weeks
Description: as §1, §2, §3

Sequence of G-protein coupled cannabinoid receptor GPR119 (Q8TDV5 whole entry): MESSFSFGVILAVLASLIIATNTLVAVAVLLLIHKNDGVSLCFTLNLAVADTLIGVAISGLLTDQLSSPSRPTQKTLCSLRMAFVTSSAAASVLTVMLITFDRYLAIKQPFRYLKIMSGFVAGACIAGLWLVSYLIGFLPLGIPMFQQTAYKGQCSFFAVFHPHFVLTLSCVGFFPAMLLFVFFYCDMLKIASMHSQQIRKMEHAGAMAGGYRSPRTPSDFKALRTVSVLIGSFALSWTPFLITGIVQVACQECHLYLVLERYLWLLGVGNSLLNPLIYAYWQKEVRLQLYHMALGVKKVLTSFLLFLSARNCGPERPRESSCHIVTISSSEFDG

What does the source list for CCCCCCCC/C=C\CCCCCCCC(=O)NCCO [OEA, N-oleoyl-ethanolamide]?
FAS l, ratio of RNA levels relative to control mice [1]: 1.65; OEA synthase i, ratio of RNA levels relative to control mice [2]: −1.38; FAAH at ep, ratio of RNA levels relative to control mice ([3]; epidydimal adipose tissue): 2.22; FAAH at per, ratio of RNA levels relative to control mice ([3]; peritoneal adipose tissue): 1.62; FAAH i, ratio of RNA levels relative to control mice ([3]; proximal intestine): 1.68; SREBP1c at ep, ratio of RNA levels relative to control mice ([4]; epidydimal adipose tissue): 1.08; SREBP1c l, ratio of RNA levels relative to control mice ([4]; liver): 1.24; SREBP1c at per, ratio of RNA levels relative to control mice ([4]; peritoneal adipose tissue): −1.39; food intake after acute gavage [5]: decrease significantly; Fiaf at ep, ratio of RNA levels relative to control mice ([6]; epidydimal adipose tissue): −1.41; Fiaf at per, ratio of RNA levels relative to control mice ([6]; peritoneal adipose tissue): −2.42; Fiaf i, ratio of RNA levels relative to control mice ([6]; proximal intestine): 1.15; PepCK l, ratio of RNA levels relative to control mice [7]: 1.02; UCP2 m, ratio of RNA levels relative to control mice [8]: 1.19; CB1 at ep, ratio of RNA levels relative to control mice ([9]; epidydimal adipose tissue): −1.94; CB1 at per, ratio of RNA levels relative to control mice ([9]; peritoneal adipose tissue): −5.27; CB1 i, ratio of RNA levels relative to control mice ([9]; proximal intestine): −1.02; NAAA at ep, ratio of RNA levels relative to control mice ([10]; epidydimal adipose tissue): 1.36; NAAA at per, ratio of RNA levels relative to control mice ([10]; peritoneal adipose tissue): 1.03; NAAA i, ratio of RNA levels relative to control mice ([10]; proximal intestine): 1.85; binding to GPR119 [11]: can also bind; overall gene expression pattern (multivariate statistical analysis) [12]: significant shift; ACO l, ratio of RNA levels relative to control mice (AcylCoA oxidase (ACO)): 1.06
